Data published in the NIST ThermoML archive (doi:10.1016/j.jct.2016.03.035).
Where “and” joins values, the source holds several entries; their conditions need not be identical. Identical values can stand only once.

Test: xn = mol fraction of the nth substance listed
Details: 273.15 K, Gas, Buoyancy - hydrostatic balance with magnetic suspension - two sinkers

C [methane] + CCC
Details | mass density
441.3 kPa, x1 = 0.5069 | 6.0554 kg/m3
441.54 kPa, x1 = 0.5069 | 6.0588 kg/m3
453.5 kPa, x1 = 0.5069 | 6.23 kg/m3
453.52 kPa, x1 = 0.5069 | 6.23 kg/m3
453.54 kPa, x1 = 0.5069 | 6.2304 kg/m3
486.09 kPa, x1 = 0.2658 | 8.458 kg/m3 and 8.4582 kg/m3
486.1 kPa, x1 = 0.2658 | 8.4581 kg/m3
491.06 kPa, x1 = 0.5069 | 6.7718 kg/m3
491.73 kPa, x1 = 0.2658 | 8.5643 kg/m3 and 8.5641 kg/m3 and 8.564 kg/m3
497.16 kPa, x1 = 0.5069 | 6.8601 kg/m3
500.88 kPa, x1 = 0.7498 | 5.2229 kg/m3
500.89 kPa, x1 = 0.7498 | 5.2229 kg/m3
503.23 kPa, x1 = 0.5069 | 6.9481 kg/m3
506.92 kPa, x1 = 0.5069 | 7.0016 kg/m3
506.93 kPa, x1 = 0.5069 | 7.0019 kg/m3
506.95 kPa, x1 = 0.5069 | 7.0022 kg/m3
537.7 kPa, x1 = 0.2658 | 9.4418 kg/m3 and 9.4416 kg/m3
537.71 kPa, x1 = 0.2658 | 9.4418 kg/m3
554.75 kPa, x1 = 0.5069 | 7.701 kg/m3
555.81 kPa, x1 = 0.5069 | 7.717 kg/m3
556.85 kPa, x1 = 0.5069 | 7.7324 kg/m3
562.21 kPa, x1 = 0.2658 | 9.9156 kg/m3 and 9.9157 kg/m3
568.57 kPa, x1 = 0.2658 | 10.0393 kg/m3 and 10.0391 kg/m3
607.74 kPa, x1 = 0.5069 | 8.4834 kg/m3
607.75 kPa, x1 = 0.5069 | 8.4836 kg/m3
607.76 kPa, x1 = 0.5069 | 8.484 kg/m3
608.84 kPa, x1 = 0.2658 | 10.8308 kg/m3 and 10.8306 kg/m3
611.36 kPa, x1 = 0.5069 | 8.5381 kg/m3
612.13 kPa, x1 = 0.5069 | 8.5492 kg/m3
612.89 kPa, x1 = 0.5069 | 8.5606 kg/m3
615.59 kPa, x1 = 0.2658 | 10.9646 kg/m3 and 10.9644 kg/m3 and 10.9642 kg/m3
619.26 kPa, x1 = 0.5069 | 8.6551 kg/m3
625.49 kPa, x1 = 0.5069 | 8.7476 kg/m3
631.66 kPa, x1 = 0.5069 | 8.8402 kg/m3
652.39 kPa, x1 = 0.2658 | 11.7012 kg/m3
652.4 kPa, x1 = 0.2658 | 11.7011 kg/m3
659.32 kPa, x1 = 0.2658 | 11.841 kg/m3 and 11.8409 kg/m3 and 11.8406 kg/m3
699.84 kPa, x1 = 0.5069 | 9.8667 kg/m3
701.3 kPa, x1 = 0.5069 | 9.889 kg/m3
701.31 kPa, x1 = 0.5069 | 9.8889 kg/m3
701.32 kPa, x1 = 0.5069 | 9.8887 kg/m3
705.89 kPa, x1 = 0.5069 | 9.9581 kg/m3
711.37 kPa, x1 = 0.5069 | 10.0422 kg/m3
711.71 kPa, x1 = 0.5069 | 10.0475 kg/m3
711.89 kPa, x1 = 0.5069 | 10.0504 kg/m3
712.05 kPa, x1 = 0.5069 | 10.0527 kg/m3
776.08 kPa, x1 = 0.5069 | 11.034 kg/m3
781.94 kPa, x1 = 0.5069 | 11.1239 kg/m3
787.74 kPa, x1 = 0.5069 | 11.2144 kg/m3
802.95 kPa, x1 = 0.5069 | 11.451 kg/m3
803.19 kPa, x1 = 0.5069 | 11.4546 kg/m3
803.43 kPa, x1 = 0.5069 | 11.4585 kg/m3
829.51 kPa, x1 = 0.5069 | 11.8643 kg/m3
829.52 kPa, x1 = 0.5069 | 11.8644 kg/m3 and 11.8643 kg/m3
883.12 kPa, x1 = 0.5069 | 12.7095 kg/m3
888.99 kPa, x1 = 0.5069 | 12.8025 kg/m3
894.82 kPa, x1 = 0.5069 | 12.8951 kg/m3
899.8 kPa, x1 = 0.7498 | 9.5967 kg/m3 and 9.5966 kg/m3
899.82 kPa, x1 = 0.7498 | 9.5965 kg/m3
907.75 kPa, x1 = 0.5069 | 13.1005 kg/m3
907.76 kPa, x1 = 0.5069 | 13.1006 kg/m3
929.46 kPa, x1 = 0.5069 | 13.4491 kg/m3
930.26 kPa, x1 = 0.5069 | 13.4619 kg/m3
